Test system: LNCaP tumor-bearing mice
Assay: Ex vivo biodistribution in LNCaP tumor-bearing mice
Set-up: species or system mouse
Method: Imaging, biodistribution and radioligand therapy experiments were performed following previously published procedures using male NOD-scid IL2Rg^null (NSG) or NOD.Cg-Rag1^tm1MomIl2rg^tm1Wjl/SzJ (NRG) mice [10]-[12],[14]-[15]. The experiments were conducted according to the guidelines established by the Canadian Council on Animal Care and approved by Animal Ethics Committee of the University of British Columbia. The mice were briefly sedated by inhalation of 2% isoflurane in oxygen, and implanted subcutaneously with 1×10^7 LNCaP cells behind the left shoulder. The mice were imaged or used in biodistribution studies when the tumor grew to 5-8 mm in diameter over a period of 4-5 weeks.
For biodistribution studies, the mice were injected with the radioligand (2-4 MBq) as described above. For blocking, the mice were co-injected with nonradioactive DCFPyL (0.5 mg). At predetermined time points, the mice were sedated by isoflurane inhalation and euthanized by CO2 inhalation. Blood was withdrawn by cardiac puncture, and organs/tissues of interest were collected, weighed and counted using an automatic gamma counter (Tables S4-S7).

In the case of `COc1ccc(CCCC(=O)NCC(=O)N[C@@H](CCCCNC(=O)CN2CCN(CC(=O)[O-])CCN(CC(=O)[O-])CCN(CC(=O)[O-])CC2)C(=O)NC[C@H]2CC[C@H](C(=O)N[C@@H](Cc3c4ccccc4cc4ccccc34)C(=O)NCCCC[C@H](NC(=O)N[C@@H](CSCC(=O)O)C(=O)O)C(=O)O)CC2)cc1.[177Lu+3]` [[^177Lu]Lu-HTK04048], the Adrenal glands uptake (1 h post-injection) is reported as 4.43 ± 1.11 %ID/g, the Blood uptake (1 h post-injection) is reported as 19.8 ± 3.38 %ID/g and the “Blood:Salivary gland uptake ratio” value (1 h post-injection) is reported as 6.78 ± 0.76. For the same compound, the Bone uptake (1 h post-injection) was 1.10 ± 0.16 %ID/g, the Brain uptake (1 h post-injection) was 0.29 ± 0.03 %ID/g and the Fat uptake (1 h post-injection) was 1.56 ± 0.45 %ID/g. It also gave a Heart uptake (1 h post-injection) of 4.74 ± 0.60 %ID/g, an Intestines uptake (1 h post-injection) of 1.38 ± 0.22 %ID/g and a Kidneys uptake (1 h post-injection) of 17.4 ± 4.32 %ID/g. The Lacrimal glands uptake (1 h post-injection) was 0.42 ± 0.12 %ID/g, the Liver uptake (1 h post-injection) was 3.94 ± 0.69 %ID/g and the Lungs uptake (1 h post-injection) was 9.52 ± 1.44 %ID/g. The Muscle uptake (1 h post-injection) was 1.54 ± 0.20 %ID/g, the Pancreas uptake (1 h post-injection) was 1.77 ± 0.17 %ID/g and the Salivary glands uptake (1 h post-injection) was 2.92 ± 0.36 %ID/g. The Spleen uptake (1 h post-injection) was 2.57 ± 0.48 %ID/g, the Stomach uptake (1 h post-injection) was 0.75 ± 0.11 %ID/g and the Testes uptake (1 h post-injection) was 2.60 ± 0.62 %ID/g. For the same compound, the Thyroid uptake (1 h post-injection) was 3.97 ± 0.47 %ID/g, the Tumor uptake (1 h post-injection) was 16.5 ± 5.48 %ID/g and the “Tumor:Blood uptake ratio” value (1 h post-injection) was 0.84 ± 0.22. For the same compound, the “Tumor:Kidney uptake ratio” value (1 h post-injection) was 0.99 ± 0.34, the “Tumor:Muscle uptake ratio” value (1 h post-injection) was 10.7 ± 2.87 and the “Tumor:Salivary gland uptake ratio” value (1 h post-injection) was 5.64 ± 1.51. The Adrenal glands uptake (4 h post-injection) was 2.17 ± 0.21 %ID/g, the Blood uptake (4 h post-injection) was 11.7 ± 1.39 %ID/g and the “Blood:Salivary gland uptake ratio” value (4 h post-injection) was 6.12 ± 0.58. The Bone uptake (4 h post-injection) was 0.69 ± 0.11 %ID/g, the Brain uptake (4 h post-injection) was 0.18 ± 0.01 %ID/g and the Fat uptake (4 h post-injection) was 0.94 ± 0.13 %ID/g. It also gave a Heart uptake (4 h post-injection) of 2.87 ± 0.30 %ID/g, an Intestines uptake (4 h post-injection) of 1.00 ± 0.08 %ID/g and a Kidneys uptake (4 h post-injection) of 12.5 ± 1.35 %ID/g. For the same compound, the Lacrimal glands uptake (4 h post-injection) was 0.54 ± 0.52 %ID/g, the Liver uptake (4 h post-injection) was 2.28 ± 0.46 %ID/g and the Lungs uptake (4 h post-injection) was 5.92 ± 0.79 %ID/g. For the same compound, the Muscle uptake (4 h post-injection) was 0.96 ± 0.09 %ID/g, the Pancreas uptake (4 h post-injection) was 1.15 ± 0.14 %ID/g and the Salivary glands uptake (4 h post-injection) was 1.91 ± 0.20 %ID/g. For the same compound, the Spleen uptake (4 h post-injection) was 1.96 ± 0.39 %ID/g, the Stomach uptake (4 h post-injection) was 0.71 ± 0.13 %ID/g and the Testes uptake (4 h post-injection) was 2.72 ± 0.34 %ID/g. For the same compound, the Thyroid uptake (4 h post-injection) was 2.68 ± 0.23 %ID/g, the Tumor uptake (4 h post-injection) was 39.4 ± 22.4 %ID/g and the “Tumor:Blood uptake ratio” value (4 h post-injection) was 3.49 ± 2.31. For the same compound, the “Tumor:Kidney uptake ratio” value (4 h post-injection) was 3.27 ± 2.16, the “Tumor:Muscle uptake ratio” value (4 h post-injection) was 42.2 ± 27.3 and the “Tumor:Salivary gland uptake ratio” value (4 h post-injection) was 20.9 ± 11.9. For the same compound, the Adrenal glands uptake (24 h post-injection) was 0.67 ± 0.26 %ID/g, the Blood uptake (24 h post-injection) was 0.62 ± 0.16 %ID/g and the “Blood:Salivary gland uptake ratio” value (24 h post-injection) was 1.61 ± 0.40. The Bone uptake (24 h post-injection) was 0.11 ± 0.02 %ID/g, the Brain uptake (24 h post-injection) was 0.03 ± 0.00 %ID/g and the Fat uptake (24 h post-injection) was 0.15 ± 0.05 %ID/g. It also gave a Heart uptake (24 h post-injection) of 0.34 ± 0.05 %ID/g, an Intestines uptake (24 h post-injection) of 0.46 ± 0.31 %ID/g and a Kidneys uptake (24 h post-injection) of 5.68 ± 1.28 %ID/g. The Lacrimal glands uptake (24 h post-injection) was 0.06 ± 0.01 %ID/g, the Liver uptake (24 h post-injection) was 0.77 ± 0.52 %ID/g and the Lungs uptake (24 h post-injection) was 1.05 ± 0.36 %ID/g. The Muscle uptake (24 h post-injection) was 0.11 ± 0.02 %ID/g, the Pancreas uptake (24 h post-injection) was 0.15 ± 0.03 %ID/g and the Salivary glands uptake (24 h post-injection) was 0.39 ± 0.08 %ID/g. For the same compound, the Spleen uptake (24 h post-injection) was 0.64 ± 0.10 %ID/g, the Stomach uptake (24 h post-injection) was 0.83 ± 0.66 %ID/g and the Testes uptake (24 h post-injection) was 0.67 ± 0.24 %ID/g. For the same compound, the Thyroid uptake (24 h post-injection) was 0.53 ± 0.07 %ID/g, the Tumor uptake (24 h post-injection) was 65.3 ± 19.6 %ID/g and the “Tumor:Blood uptake ratio” value (24 h post-injection) was 113 ± 44.5. The “Tumor:Kidney uptake ratio” value (24 h post-injection) was 11.5 ± 2.22, the “Tumor:Muscle uptake ratio” value (24 h post-injection) was 594 ± 177 and the “Tumor:Salivary gland uptake ratio” value (24 h post-injection) was 175 ± 58.1. The Adrenal glands uptake (72 h post-injection) was 0.33 ± 0.06 %ID/g, the Blood uptake (72 h post-injection) was 0.08 ± 0.06 %ID/g and the “Blood:Salivary gland uptake ratio” value (72 h post-injection) was 0.43 ± 0.28. For the same compound, the Bone uptake (72 h post-injection) was 0.06 ± 0.02 %ID/g, the Brain uptake (72 h post-injection) was 0.01 ± 0.00 %ID/g and the Fat uptake (72 h post-injection) was 0.07 ± 0.03 %ID/g. The Heart uptake (72 h post-injection) was 0.14 ± 0.03 %ID/g, the Intestines uptake (72 h post-injection) was 0.13 ± 0.08 %ID/g and the Kidneys uptake (72 h post-injection) was 2.19 ± 0.21 %ID/g. It also gave a Lacrimal glands uptake (72 h post-injection) of 0.01 ± 0.01 %ID/g, a Liver uptake (72 h post-injection) of 0.25 ± 0.02 %ID/g and a Lungs uptake (72 h post-injection) of 0.26 ± 0.08 %ID/g. For the same compound, the Muscle uptake (72 h post-injection) was 0.03 ± 0.01 %ID/g, the Pancreas uptake (72 h post-injection) was 0.06 ± 0.01 %ID/g and the Salivary glands uptake (72 h post-injection) was 0.18 ± 0.03 %ID/g. For the same compound, the Spleen uptake (72 h post-injection) was 0.54 ± 0.14 %ID/g, the Stomach uptake (72 h post-injection) was 0.20 ± 0.17 %ID/g and the Testes uptake (72 h post-injection) was 0.35 ± 0.05 %ID/g. For the same compound, the Thyroid uptake (72 h post-injection) was 0.28 ± 0.05 %ID/g, the Tumor uptake (72 h post-injection) was 64.1 ± 15.0 %ID/g and the “Tumor:Blood uptake ratio” value (72 h post-injection) was 1493 ± 1213. The “Tumor:Kidney uptake ratio” value (72 h post-injection) was 29.2 ± 6.22, the “Tumor:Muscle uptake ratio” value (72 h post-injection) was 2043 ± 734 and the “Tumor:Salivary gland uptake ratio” value (72 h post-injection) was 362 ± 111. The Adrenal glands uptake (120 h post-injection) was 0.30 ± 0.14 %ID/g, the Blood uptake (120 h post-injection) was 0.04 ± 0.03 %ID/g and the “Blood:Salivary gland uptake ratio” value (120 h post-injection) was 0.22 ± 0.13. It also gave a Bone uptake (120 h post-injection) of 0.05 ± 0.02 %ID/g, a Brain uptake (120 h post-injection) of 0.01 ± 0.00 %ID/g and a Fat uptake (120 h post-injection) of 0.05 ± 0.03 %ID/g. The Heart uptake (120 h post-injection) was 0.08 ± 0.02 %ID/g, the Intestines uptake (120 h post-injection) was 0.10 ± 0.10 %ID/g and the Kidneys uptake (120 h post-injection) was 1.43 ± 0.48 %ID/g. The Lacrimal glands uptake (120 h post-injection) was 0.01 ± 0.01 %ID/g, the Liver uptake (120 h post-injection) was 0.18 ± 0.07 %ID/g and the Lungs uptake (120 h post-injection) was 0.12 ± 0.05 %ID/g. It also gave a Muscle uptake (120 h post-injection) of 0.02 ± 0.01 %ID/g, a Pancreas uptake (120 h post-injection) of 0.05 ± 0.03 %ID/g and a Salivary glands uptake (120 h post-injection) of 0.13 ± 0.03 %ID/g. It also gave a Spleen uptake (120 h post-injection) of 0.55 ± 0.27 %ID/g, a Stomach uptake (120 h post-injection) of 0.04 ± 0.02 %ID/g and a Testes uptake (120 h post-injection) of 0.22 ± 0.09 %ID/g. For the same compound, the Thyroid uptake (120 h post-injection) was 0.17 ± 0.02 %ID/g, the Tumor uptake (120 h post-injection) was 65.7 ± 19.1 %ID/g and the “Tumor:Blood uptake ratio” value (120 h post-injection) was 4346 ± 4168. For the same compound, the “Tumor:Kidney uptake ratio” value (120 h post-injection) was 52.1 ± 16.3, the “Tumor:Muscle uptake ratio” value (120 h post-injection) was 3358 ± 2122 and the “Tumor:Salivary gland uptake ratio” value (120 h post-injection) was 604 ± 226. For the same compound, the “Peaked tumor uptake relative to ^68Ga-labeled non-albumin-binder analog” value (mouse, in vivo) was ~ 3 fold, the “Peaked average tumor uptake” value (peak over 1-120 h post-injection) was ~ 60 %ID/g and the “Time of peak tumor uptake” value (post-injection, listed as 177Lu-labeled HTK04048) was 4 to 24 h.

Source: publication PMC10465233, “Lys-urea-Aad, Lys-urea-Cmc and Lys-urea-Cms as potential pharmacophores for the design of PSMA-targeted radioligands to reduce off-target uptake in kidneys and salivary glands” (Theranostics, 2023)
